Data from patent US11180509B2, “Thiazolidone spiro pyrimidine trione compound, preparation method therefor and uses thereof” (SHANGHAI INSTITUTE OF MATERIA MEDICA, CHINESE ACADEMY OF …, priority 2017, dated 2021).
Values after ≈ are worked out from the molar mass of the structure shown. Read-outs that look alike come from different tables or passages of the source.

Tests used:
[1] = tested on: Staphylococcus aureus MRSA15-3; assay: In vitro antibacterial activity against the in vivo test strain (MIC); assay type: cell-based; settings: MRSA153
Protocol: (§1) The MIC value of each test sample for the tested strain was determined by micro broth dilution method recommended by Performance Standards for Antimicrobial Susceptibility Testing (Twenty-Third Informational Supplement; M02-A11, M07-A9 and M11-A8, 2013) of American Clinical and Laboratory Standards Institute (CLSI).
(§2) After diluting each test sample to different concentrations in MH broth, 100 μl of each sample solution at different concentrations was pipetted into a sterilized 96-well polystyrene plate. In the first to twelfth wells, the drug solution was added, and the final drug concentrations in each well were 64, 32, 16, 8, 4, 2, 1, 0.5, 0.25, 0.125, 0.06, and 0.03 mg/L. The well without drug and without bacteria was set as blank control well. The well with bacteria and without drug was set as a bacterial growth control well.
The test bacterial solution was adjusted with physiological saline to a bacterial suspension equivalent to 0.5 Maisson turbidity standard, and diluted 1:100 with MH broth. The drug solution was added so that the final concentration of the bacterial solution was about 10^4 CFU/ml; then 100 μl of bacterial solution was pipetted into the above wells (the total volume in each well was 200 μl). The plate was sealed and placed in a 35-37° C. incubator for 18-20 h, and then the results were determined. […]

[2] = In vivo pharmacokinetics test in mice (oral); set-up: species or system CD-1 mice; settings: PO 10.0 mg/kg; for AUC0→t relative to AZD0914 / Cmax relative to AZD0914: multiple of the AZD0914 value
Protocol: Healthy female CD-1 mice were randomly divided into five groups and each group comprised three mice. The tested compound was administered orally.
0.030 mL of blood was taken from the orbit of each animal each time and anticoagulated with EDTAK2. The collection time was as follows. PO group: 15 m, 30 mi, 1 h, 2 h, 4 h, 6 h, 8 h, and 24 h after administration of the test compound. The collected blood samples were placed on ice and centrifuged within 30 minutes to separate the plasma (centrifugation conditions: 5000 rpm, 10 minutes, room temperature). The samples were stored at −80° C. before analysis.

[3] = tested on: methicillin-resistant Staphylococcus epidermidis or MRSE; assay: In vitro antibacterial activity, MIC by micro broth dilution; assay type: cell-based; settings: read-out: MIC MRSE
From the text: (§3) The following strains isolated in clinic were used in antibacterial activity screening in vitro: five strains of methicillin-resistant Staphylococcus aureus or MRSA, five strains of methicillin-sensitive Staphylococcus aureus or MSSA, five strains of methicillin-resistant Staphylococcus epidermidis or MRSE, five strains of methicillin-sensitive Staphylococcus epidermidis or MSSE, three strains of penicillin-resistant Streptococcus pneumoniae or PRSP, and three strains of Streptococcus pyogenes.
(§4) The above strains were clinically isolated pathogenic bacteria collected in Sichuan and Beijing in December 2015. They were identified by the collection unit via a VITEK-60 automatic microbiological identification instrument, and then re-identified by conventional methods in the laboratory. Before the experiment, each strain was purified by a single colony on an agar plate, and the cells freshly cultured at 37° C. overnight were appropriately diluted for the experiment. Quality control strain was Staphylococcus aureus ATCC25923 purchased from the Clinical Testing Center of the Ministry of Health of the People's Republic of China.
(§5) Medium: MH (Mueller-Hinton, hydrolyzed casein) broth (OXOID);
(§6) Culture condition: Incubate at 35-37° C. for 16-18 h.
as §1, §2
(§7) The test bacterial solution was adjusted with physiological saline to a bacterial suspension equivalent to 0.5 Maisson turbidity standard, and diluted 1:100 with MH broth. The drug solution was added so that the final concentration of the bacterial solution was about 10^4 CFU/ml; then 100 μl of bacterial solution was pipetted into the above wells (the total volume in each well was 200 μl). The plate was sealed and placed in a 35-37° C. incubator for 18-20 h, and then the results were determined. […] When Streptococcus pneumoniae was tested, sterile defibrillated sheep blood was added into the Colombian broth culture medium at a final concentration of 5% and cultivation was conducted in a 5% CO2 and 35-37° C. incubator for 18-20 hours.

Streptococcus pyogenes = assay: as above; assay type: cell-based; settings: read-out: MIC Spy
From the text: as §3, §4, §5, §6, §1, §2, §7

[4] = tested on: methicillin-sensitive Staphylococcus epidermidis or MSSE; assay: as above; assay type: cell-based; settings: read-out: MIC MSSE
From the text: as §3, §4, §5, §6, §1, §2, §7

[5] = tested on: methicillin-resistant Staphylococcus aureus or MRSA; assay: as above; assay type: cell-based; settings: read-out: MIC MRSA
From the text: as §3, §4, §5, §6, §1, §2, §7

[6] = tested on: penicillin-resistant Streptococcus pneumoniae or PRSP; assay: as above; assay type: cell-based; settings: read-out: MIC PRSP
From the text: as §3, §4, §5, §6, §1, §2, §7

[7] = tested on: methicillin-sensitive Staphylococcus aureus or MSSA; assay: as above; assay type: cell-based; settings: read-out: MIC MSSA
From the text: as §3, §4, §5, §6, §1, §2, §7

[8] = tested on: S. aureus MRSA15-3 infected mice; assay: In vivo protection test, systemic infection model (ED50); set-up: species or system Kunming mice; settings: Staphylococcus aureus
[9] = tested on: MRSA, MSSA, MRSE, MSSE, PRSP, and Spy; assay: In vitro antibacterial activity over the whole strain panel, compared with AZD0914; assay type: cell-based; settings: against MRSA
From the text: as §3, §4, §1, §2, §7

[10] = female, CD-1, mouse, plasma, read-out: Tmax

Structure (SMILES)	Tmax [2, 10]	MIC [3]	MIC (Streptococcus pyogenes)	MIC [4]	MIC [5]	MIC [6]	MIC [7]	AUC0→t ([2]; plasma)	Cmax ([2]; plasma)	MRT ([2]; plasma)	t1/2 ([2]; plasma)	AUC0→t relative to AZD0914 [2]	Cmax relative to AZD0914 [2]	in vitro antibacterial activity relative to AZD0914 [9]	other results
C[C@@H]1CN2c3c(cc4c(N5C(=O)OC[C@@H]5C)noc4c3F)CC3(C(=O)NC(=O)NC3=O)[C@H]2[C@H](C)O1 [AZD0914, reference compound]	0.583 ± 0.382 h	0.06 to 0.25 µg/mL (≈ 0.123 to 0.513 µM)	0.25 to 0.5 µg/mL (≈ 0.513 to 1.03 µM)	0.06 to 0.25 µg/mL (≈ 0.123 to 0.513 µM)	0.06 to 1 µg/mL (≈ 0.123 to 2.05 µM)	0.25 to 1 µg/mL (≈ 0.513 to 2.05 µM)	0.125 to 0.25 µg/mL (≈ 0.256 to 0.513 µM)								MIC [1]: 0.125 µg/mL (≈ 0.256 µM); AUC(0-t) ([2]; female, CD-1, mouse, plasma): 748 ± 215 ng·h/mL; half-life ([2]; female, CD-1, mouse, plasma): 3.41 ± 0.944 h; Cmax ([2]; female, CD-1, mouse, plasma, read-out: Cmax): 183 ± 134 ng/mL; MRT ([2]; female, CD-1, mouse, plasma, read-out: MRT): 7.06 ± 2.92 h; ED50 [8]: 11.5 mg/kg; ED50 ([8]; po, read-out: ED50 95% confidence limit): 7.28 to 25.8 mg/kg
C[C@@H]1CN2c3c(cc4c(N5C[C@@H](C)SC5=O)noc4c3F)CC3(C(=O)NC(=O)NC3=O)[C@H]2[C@H](C)O1 [Compound 3, (2R,4S,4aS)-11-fluoro-2,4-dimethyl-8-((R)-5-methyl-2-oxothiazolin-3-yl)-1,2,4,4a-tetrahydro-2′H,6H-spiro[isoxazole[4,5-g][1,4]oxazine[4,3-a]quinoline-5,5′-pyrimidine]-2′,4′,6′(1′H,3′H)-trione]	0.583 ± 0.382 h	0.03 to 0.06 µg/mL (≈ 0.0596 to 0.119 µM)	< 0.03 µg/mL	0.03 to 0.06 µg/mL (≈ 0.0596 to 0.119 µM)	0.03 to 0.25 µg/mL (≈ 0.0596 to 0.497 µM)	0.03 µg/mL (≈ 0.0596 µM)	0.03 to 0.125 µg/mL (≈ 0.0596 to 0.248 µM)	12034 ± 2835 ng·h/mL	2188 ± 223 ng/mL	4.85 ± 0.99 h	2.70 ± 0.143 h				
COC[C@H]1CN(c2noc3c(F)c4c(cc23)CC2(C(=O)NC(=O)NC2=O)[C@H]2[C@H](C)O[C@H](C)CN42)C(=O)S1 [Compound 8, (2R,4S,4aS)-11-fluoro-8-((R)-5-(methoxymethyl)-2-oxothiazolin-3-yl)-2,4-dimethyl-1,2,4,4a-tetrahydro-2′H,6H-spiro[isoxazole[4,5-g][1,4]oxazine[4,3-a]quinoline-5,5′-pyrimidine]-2′,4′,6′(1′H,3′H)-trione]	0.583 ± 0.382 h	0.03 µg/mL (≈ 0.0562 µM)	0.25 to 0.5 µg/mL (≈ 0.469 to 0.937 µM)	0.03 to 0.125 µg/mL (≈ 0.0562 to 0.234 µM)	0.03 to 0.5 µg/mL (≈ 0.0562 to 0.937 µM)	0.03 to 0.5 µg/mL (≈ 0.0562 to 0.937 µM)	0.03 to 0.25 µg/mL (≈ 0.0562 to 0.469 µM)	8240 ± 940 ng·h/mL	2051 ± 88 ng/mL	3.72 ± 0.76 h	2.51 ± 0.08 h	~11 times)	~11 times)		
CC[C@@H]1CN(c2noc3c(F)c4c(cc23)CC2(C(=O)NC(=O)NC2=O)[C@H]2[C@H](C)O[C@H](C)CN42)C(=O)S1 [Compound 16, (2R,4S,4aS)-8-((R)-5-ethyl-2-oxothiazol-3-yl)-11-fluoro-2,4-dimethyl-1,2,4,4a-tetrahydro-2′H,6H-spiro[isoxazole[4,5-g][1,4]oxazine[4,3-a]quinoline-5,5′-pyrimidine]-2′,4′,6′(1′H,3′H)-trione]		< 0.03 µg/mL	< 0.03 µg/mL	< 0.03 µg/mL	0.03 to 0.06 µg/mL (≈ 0.058 to 0.116 µM)	0.03 to 0.06 µg/mL (≈ 0.058 to 0.116 µM)	0.03 to 0.06 µg/mL (≈ 0.058 to 0.116 µM)	8057 ± 1469 ng·h/mL	2376 ± 411 ng/mL	3.45 ± 0.788 h	1.59 ± 0.495 h	~11 times)	~13 times)	about 8 times	Tmax ([2]; plasma): 1.17 ± 0.764 h
CC[C@H]1CN(c2noc3c(F)c4c(cc23)CC2(C(=O)NC(=O)NC2=O)[C@H]2[C@H](C)O[C@H](C)CN42)C(=O)S1 [Compound 19, (2R,4S,4aS)-8-((S)-5-ethyl-2-oxothiazol-3-yl)-11-fluoro-2,4-dimethyl-1,2,4,4a-tetrahydro-2′H,6H-spiro[isoxazole[4,5-g][1,4]oxazine[4,3-a]quinoline-5,5′-pyrimidine]-2′,4′,6′(1′H,3′H)-trione]		< 0.03 µg/mL	< 0.03 µg/mL	0.03 to 0.06 µg/mL (≈ 0.058 to 0.116 µM)	< 0.03 µg/mL	0.03 to 0.06 µg/mL (≈ 0.058 to 0.116 µM)	< 0.03 µg/mL							about 8 times	
C=C1CN(c2noc3c(F)c4c(cc23)CC2(C(=O)NC(=O)NC2=O)[C@H]2[C@H](C)O[C@H](C)CN42)C(=O)S1 [Compound 25, (2R,4S,4aS)-11-fluoro-2,4-dimethyl-8-(5-methylene-2-oxothiazol-3-yl)-1,2,4,4a-tetrahydro-2′H,6H-spiro[isoxazole[4,5-g][1,4]oxazine[4,3-a]quinoline-5,5′-pyrimidine]-2′,4′,6′(1′H, 3′H)-trione]		< 0.03 µg/mL	< 0.03 µg/mL	< 0.03 µg/mL	< 0.03 µg/mL	< 0.03 µg/mL	< 0.03 µg/mL							about 8 times	
